Laboratory results published in US9809542B2, “Spiroheterocyclically substituted tetramic acid derivatives” (BAYER INTELLECTUAL PROPERTY GMBH, priority 2010, dated 2017).

Experiments:
Assay type in all cases: in vivo
[1] = test system: Lucilia cuprina larva; assay: Lucilia cuprina test (LUCICU); conditions: application rate 100 ppm; treated horse meat; after 2 days
Experimental: Lucilia cuprina Test (LUCICU)
(§1) Solvent: Dimethyl sulphoxide
To produce a suitable preparation of active compound, 10 mg of active compound are mixed with 0.5 ml of dimethyl sulphoxide and the concentrate is diluted with water to the desired concentration. Containers containing horse meat treated with the active compound preparation of the desired concentration are populated with about 20 Lucilia cuprina larva.
After 2 days, the kill in % is determined. 100% means that all larva have been killed; 0% means that none of the larva have been killed.

[2] = test system: cotton aphid (Aphis gossypii); assay: Aphis gossypii test; conditions: cotton plants; for Kill rate after 6 days: no additive
Experimental: (§2) Solvent: 7 parts by weight of dimethylformamide
(§3) Emulsifier: 2 parts by weight of alkylaryl polyglycol ether
To produce a suitable preparation of active compound, 1 part by weight of active compound is mixed with the stated amounts of solvent and emulsifier, and the concentrate is diluted with emulsifier-containing water to the desired concentration. For application with ammonium salts and penetrants (rapeseed oil methyl esters 500 EW) these are in each case added in a concentration of 1000 ppm of a.i. to the spray liquor.
Cotton plants (Gossypium hirsutum) which are heavily infested by the cotton aphid (Aphis gossypii) are sprayed to runoff point with the preparation of active compound at the desired concentration.
After the desired period of time, the kill in % is determined. 100% means that all aphids have been killed; 0% means that none of the aphids have been killed.

[3] = test system: caterpillars of the armyworm (Spodoptera frugiperda); assay: Spodoptera frugiperda test (SPODFR spray treatment); conditions: application rate 500 g/ha, maize leaf discs, after 7 days
Experimental: Spodoptera frugiperda Test (SPODFR Spray Treatment)
Solvents: 78.0 parts by weight of acetone
(§4) • 1.5 parts by weight of dimethylformamide Emulsifier: 0.5 part by weight of alkylaryl polyglycol ether
To produce a suitable preparation of active compound, 1 part by weight of active compound is mixed with the stated amounts of solvents and emulsifier, and the concentrate is diluted with emulsifier-containing water to the desired concentration. Discs of maize leaves (Zea mays) are sprayed with an active compound preparation of the desired concentration and, after drying, populated with caterpillars of the armyworm (Spodoptera frugiperda).
After 7 days, the effect in % is determined. 100% means that all caterpillars have been killed; 0% means that none of the caterpillars have been killed.

[4] = test system: Boophilus microplus; assay: Boophilus microplus test (BOOPMI injection); conditions: application rate 20 μg/animal; injection into the abdomen; after 7 days
Experimental: Boophilus microplus Test (BOOPMI Injection)
as §1
To produce a suitable preparation of active compound, 10 mg of active compound are mixed with 0.5 ml of solvent and the concentrate is diluted with solvent to the desired concentration. The solution of active compound is injected into the abdomen (Boophilus microplus) and the animals are transferred into dishes and stored in a climatized room. The activity is monitored for deposition of fertile eggs.
After 7 days, the effect in % is determined. 100% means that none of the ticks has laid any fertile eggs.

[5] = test system: larva of the mustard beetle (Phaedon cochleariae); assay: Phaedon test (PHAECO spray treatment); conditions: application rate 500 g/ha, Chinese cabbage leaf discs, after 7 days
Experimental: Phaedon Test ([…] Spray Treatment) Solvents: 78.0 parts by weight of acetone • • 1.5 parts by weight of dimethylformamide Emulsifier: 0.5 part by weight of alkylaryl polyglycol ether To produce a suitable preparation of active compound, one part by weight of active compound is mixed with the stated amounts of solvents and emulsifier, and the concentrate is diluted with emulsifier-containing water to the desired concentration. Discs of Chinese cabbage (Brassica pekinensis) are sprayed with an active compound preparation of the desired concentration and, after drying, populated with larva of the mustard beetle (Phaedon cochleariae).

[6] = test system: green peach aphid (Myzus persicae); assay: Myzus test (MYZUPE spray treatment); conditions: application rate 500 g/ha, Chinese cabbage leaf discs, after 6 days
Experimental: Myzus Test (MYZUPE Spray Treatment)
Solvents: 78 parts by weight of acetone
as §4
To produce a suitable preparation of active compound, 1 part by weight of active compound is mixed with the stated amounts of solvents and emulsifier, and the concentrate is diluted with emulsifier-containing water to the desired concentration. Discs of Chinese cabbage (Brassica pekinensis) which are infested by all stages of the green peach aphid (Myzus persicae) are sprayed with an active compound preparation of the desired concentration. After 6 days, the effect in % is determined. 100% means that all aphids have been killed; 0% means that none of the aphids have been killed.

[7] = test system: green peach aphid (Myzus persicae); assay: Myzus persicae test, activity boost by ammonium salts in combination with penetrants; conditions: bell pepper plants; for Kill rate after 6 days: no additive
Experimental: Example 9: Activity Boost by Ammonium Salts in Combination with Penetrants
as §2, §3
To produce a suitable preparation of active compound, 1 part by weight of active compound is mixed with the stated amounts of solvent and emulsifier, and the concentrate is diluted with water to the desired concentration. For application with ammonium salts and penetrants (rapeseed oil methyl ester 500 EW) these are in each case added in a concentration of 1000 ppm of a.i. to the spray liquor.
Bell pepper plants (Capsicum annuum) heavily infested by the green peach aphid (Myzus persicae) are sprayed to runoff point with the preparation of active compound at the desired concentration. After the desired period of time, the kill in % is determined. 100% means that all animals have been killed; 0% means that none of the animals have been killed.

Structure (SMILES) | efficacy (kill in %) [1] [%] | Kill rate after 6 days, +AS (1000 ppm) ([2]; 20 ppm) [%] | Kill rate after 6 days, +RME (1000 ppm) ([2]; 20 ppm) [%] | Kill rate after 6 days, +RME + AS (1000 ppm each) ([2]; 20 ppm) [%] | Kill rate after 6 days ([2]; 20 ppm) [%] | efficacy (effect in %, caterpillars killed) [3] [%] | efficacy (effect in %, 100% = none of the ticks has laid any fertile eggs) [4] [%] | efficacy (effect in %, beetle larva killed) [5] [%] | efficacy (effect in %, aphids killed) [6] [%] | Kill rate after 6 days, +AS (1000 ppm) ([7]; 4 ppm) [%] | Kill rate after 6 days, +RME (1000 ppm) ([7]; 4 ppm) [%] | Kill rate after 6 days, +RME + AS (1000 ppm each) ([7]; 4 ppm) [%] | Kill rate after 6 days ([7]; 4 ppm) [%] | further results
CON1CCC2(CC1)NC(=O)C(c1c(C)ccc(-c3ccc(F)cc3)c1C)=C2O [I-a-1] | 90 | 40 | 55 | 100 | 0 | 83 | 95 | 83 | 90 | 30 | 55 | 100 | 0 | Kill rate after 6 days, +AS (1000 ppm) ([7]; 20 ppm): 90%; Kill rate after 6 days, +RME (1000 ppm) ([7]; 20 ppm): 95%; Kill rate after 6 days, +RME + AS (1000 ppm each) ([7]; 20 ppm): 100%; Kill rate after 6 days ([7]; 20 ppm): 60%
CCON1CCC2(CC1)NC(=O)C(c1c(C)ccc(-c3ccc(F)cc3)c1C)=C2O [I-a-2] | 90 | 25 | 20 | 90 | 0 | 100 | 90 | 100 | 100 | 20 | 95 | 95 | 0 | Kill rate after 6 days, +AS (1000 ppm) ([2]; 4 ppm): 0%; Kill rate after 6 days, +RME (1000 ppm) ([2]; 4 ppm): 0%; Kill rate after 6 days, +RME + AS (1000 ppm each) ([2]; 4 ppm): 45%; Kill rate after 6 days ([2]; 4 ppm): 0%; Kill rate after 6 days, +AS (1000 ppm) ([7]; 0.8 ppm): 0%; Kill rate after 6 days, +RME (1000 ppm) ([7]; 0.8 ppm): 0%; Kill rate after 6 days, +RME + AS (1000 ppm each) ([7]; 0.8 ppm): 40%; Kill rate after 6 days ([7]; 0.8 ppm): 0%
